One test has as its target Der p 1 (Dermatophagoides pteronyssinus (European house dust mite), UniProt P08176). As to the kind of experiment: Der p 1 enzyme activity assay (FRET fluorogenic substrate). It is filed as biochemical. The conditions noted are these: Der p 1 IC50. As for the experimental part: The fluorogenic substrate used for measuring Der p 1 proteolytic activity was 2-aminobenzoylvalylalanylnorleucylseryl-(3-nitro)tyrosinyl aspartamide.
Test compounds were dissolved in dry DMSO and maintained at 4° C. as stock solutions until being diluted for use in screening assays. Final concentration of DMSO in all enzymatic assays was 0.5% v/v.
Reaction mixtures were assembled in a 96-well plate format (Perkin Elmer Optiplate 96F, Perkin Elmer LAS, Seer Green, Buckinghamshire, UK) using a Perkin Elmer MultiPROBE II Plus HTS EX robot with Gripper attachment. […] Dithiothreitol (DTT, 10 μL/well, 1 mM final concentration) was then added together with 10 μL of Der p 1 dissolved at 2.5 μg/mL in reaction buffer supplemented with 1 mM DTT. […] The plate was immediately transferred to a fluorescence plate reader (Perkin Elmer Fusion Alpha-FP or Perkin Elmer Envision) equipped with a temperature-controlled carrier set at 30° C. and the reaction followed by excitation/emission at 330/420 nm.
Inhibitory activity was analysed from progress curves of reactions in the presence of a range of inhibitor concentrations.
Initial velocity in each well was converted to fractional activity by Equation 1: Fractional activity=(Initial rate at inhibitor concentration[X]/Initial rate at inhibitor concentration zero)*100 Equation 1:
Then, IC50 was determined by fitting the data of fractional activity and inhibitor concentration to a 4-parameter logistic curve, using Equation 2: V=Vmin+[Vmax−Vmin]/[1+(X/IC50)Hillslope] […] Biological Data—Der p 1 Enzyme Assay
Chain of Der p 1 (P08176 99-320): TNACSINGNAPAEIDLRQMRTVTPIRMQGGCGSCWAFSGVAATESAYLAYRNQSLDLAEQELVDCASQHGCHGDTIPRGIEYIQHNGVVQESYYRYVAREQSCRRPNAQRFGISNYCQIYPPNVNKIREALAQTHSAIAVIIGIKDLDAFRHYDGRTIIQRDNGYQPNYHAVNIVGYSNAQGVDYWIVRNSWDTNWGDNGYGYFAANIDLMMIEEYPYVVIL
Molecule `CC(C)[C@H](NC(=O)[C@H](C)NC(=O)[C@@H](NC(=O)c1ccccc1)C(C)(C)C)C(=O)C(=O)NCC(=O)N1CCc2ccccc2C1` [PVA-111] had a half-inhibitory concentration (IC50) of under 0.02 µM. For `CC(C)[C@H](NC(=O)[C@H](C)NC(=O)[C@@H](NC(=O)c1ccccc1)C(C)(C)C)C(=O)C(=O)NC1CN2CCC1CC2` (stereo partly shown) [PVA-119], the half-maximal inhibitory concentration (IC50) is under 0.2 µM. Same read-out and setting: to `CC(C)[C@H](NC(=O)[C@H](C)NC(=O)[C@@H](NC(=O)c1ccccc1)C(C)(C)C)C(=O)C(=O)N[C@@H]1CN2CCC1CC2` [PVA-120] belongs under 0.2 µM.

For `CC(C)[C@H](NC(=O)[C@H](C)NC(=O)[C@@H](NC(=O)c1ccccc1)C12CC3CC(CC(C3)C1)C2)C(=O)C(=O)NCC(=O)N1CCN(C)CC1` [PVA-146], the concentration for half-maximal inhibition (IC50) was under 0.02 µM.

Still in this test, the particulars now being: threshold stated in text; read-out: Der p 1 IC50.
In the case of `CC(C)[C@H](NC(=O)[C@H](C)NC(=O)[C@@H](NC(=O)c1ccccc1)C(C)(C)C)C(=O)C(=O)N[C@H]1CCc2ccccc21` [PVA-110], the IC50 is under 0.2 µM.

As to `CC(C)[C@H](NC(=O)[C@H](C)NC(=O)[C@@H](NC(=O)c1ccccc1)C(C)(C)C)C(=O)C(=O)NCC(=O)N1CCc2ccccc21` [PVA-112], the 50% inhibitory concentration (IC50) was under 0.02 µM. As for `CC(C)[C@H](NC(=O)[C@H](C)NC(=O)[C@H](Cc1ccccc1)NC(=O)c1n[nH]c2ccccc12)C(=O)C(=O)NCc1ccccc1` [PVA-113], the IC50 was under 0.2 µM. On to `CC(C)[C@H](NC(=O)[C@H](C)NC(=O)[C@@H](NC(=O)c1cc[nH]c(=O)c1)C(C)(C)C)C(=O)C(=O)NCc1ccccc1` [PVA-114], for which the 50% inhibitory concentration (IC50) is under 0.2 µM. Consider `Cc1n[nH]c(C)c1C(=O)N[C@H](C(=O)N[C@@H](C)C(=O)N[C@H](C(=O)C(=O)NCc1ccccc1)C(C)C)C(C)(C)C` [PVA-115], for which the IC50 was under 0.2 µM. For the molecule `CC(C)[C@H](NC(=O)[C@H](C)NC(=O)[C@@H](NC(=O)c1ccccc1)C(C)(C)C)C(=O)C(=O)NC1CC1` [PVA-116], the IC50 was under 0.02 µM. On to `CNC(=O)C(=O)[C@@H](NC(=O)[C@H](C)NC(=O)[C@@H](NC(=O)c1ccccc1)C(C)(C)C)C(C)C` [PVA-117], for which the 50% inhibitory concentration (IC50) was under 0.2 µM. As for `CC(C)[C@H](NC(=O)[C@H](C)NC(=O)[C@@H](NC(=O)c1ccccc1)C(C)(C)C)C(=O)C(N)=O` [PVA-118], the IC50 was under 0.02 µM. On to `CC(C)[C@H](NC(=O)[C@H](C)NC(=O)[C@@H](NC(=O)c1ccccc1)C(C)(C)c1ccccc1)C(=O)C(=O)NCc1ccccc1` [PVA-121], for which the 50% inhibitory concentration (IC50) is under 0.2 µM.

Turning to `CC(C)[C@H](NC(=O)[C@H](C)NC(=O)[C@@H](NC(=O)N1CCN(C)CC1)C(C)(C)C)C(=O)C(=O)NCc1ccccc1` [PVA-122], the IC50 was under 0.2 µM.

With `CC(C)[C@H](NC(=O)[C@H](C)NC(=O)C1Cc2ccccc2N1C(=O)c1ccccc1)C(=O)C(=O)NCc1ccccc1` (stereo partly shown) [PVA-123], the concentration for half-maximal inhibition (IC50) was under 0.2 µM. Regarding `CC(C)[C@H](NC(=O)[C@H](C)NC(=O)[C@@H](NC(=O)c1ccccc1)C(C)(C)C)C(=O)C(=O)NCc1cncn1C` [PVA-124], the half-inhibitory concentration (IC50) is under 0.2 µM.

Take `CC(C)[C@H](NC(=O)[C@H](C)NC(=O)[C@@H](NC(=O)c1ccccc1)C(C)(C)C)C(=O)C(=O)N[C@H](C)C(=O)N1CCN(C)CC1` [PVA-125]: the IC50 is under 0.2 µM. Consider `Cc1cc(CNC(=O)C(=O)[C@@H](NC(=O)[C@H](C)NC(=O)[C@@H](NC(=O)c2ccccc2)C(C)(C)C)C(C)C)no1` [PVA-126], for which the concentration for half-maximal inhibition (IC50) is under 0.2 µM. On the same count and under the same terms, then `CC(C)[C@H](NC(=O)[C@H](C)NC(=O)[C@@H](NC(=O)c1ccccc1)C(C)(C)C)C(=O)C(=O)N[C@H](C(=O)N1CCN(C)CC1)C(C)C` [PVA-127], with under 0.2 µM.

Turning to `CC(C)[C@H](NC(=O)[C@H](C)NC(=O)[C@@H](NC(=O)c1ccncc1)C(C)(C)C)C(=O)C(=O)NCc1ccccc1` [PVA-128], the IC50 was under 0.02 µM. Take `CC(C)[C@H](NC(=O)[C@H](C)NC(=O)[C@@H](N1Cc2ccccc2C1=O)C(C)(C)C)C(=O)C(=O)NCc1ccccc1` [PVA-129]: the concentration for half-maximal inhibition (IC50) is under 0.02 µM. The same measure, in the same setting: then `CC(C)[C@H](NC(=O)[C@H](C)NC(=O)[C@@H](NC(=O)c1cccc(C(=O)O)c1)C(C)(C)C)C(=O)C(=O)NCC(=O)N1CCN(C)CC1` [PVA-130], with under 0.02 µM.

Regarding `CC(C)[C@H](NC(=O)[C@H](C)NC(=O)[C@@H](NC(=O)c1ccc(C(=O)O)cc1)C(C)(C)C)C(=O)C(=O)NCC(=O)N1CCN(C)CC1` [PVA-131], the 50% inhibitory concentration (IC50) was under 0.2 µM.

For the molecule `CC(C)[C@H](NC(=O)[C@H](C)NC(=O)[C@@H](NC(=O)c1ccccc1)C(C)(C)C)C(=O)C(=O)N[C@H](C)c1ccccc1` [PVA-132], the IC50 is under 0.02 µM. `CC(C)[C@H](NC(=O)[C@H](C)NC(=O)[C@@H](NC(=O)c1ccccc1)C(C)(C)C)C(=O)C(=O)N[C@@H](C)c1ccccc1` [PVA-133]: the IC50 was under 0.2 µM. `CC(C)[C@H](NC(=O)[C@H](C)NC(=O)[C@@H](NC(=O)c1ccccc1)C(C)(C)C)C(=O)C(=O)NCc1ccc(=O)[nH]c1` [PVA-134]: the IC50 is under 0.02 µM. The same measure, in the same setting: then `CC(C)[C@H](NC(=O)[C@H](C)NC(=O)[C@@H](NC(=O)c1ccccc1)C(C)(C)C)C(=O)C(=O)NCc1ccc(S(N)(=O)=O)cc1` [PVA-135], with under 0.02 µM. Regarding `CC(C)[C@H](NC(=O)[C@H](C)NC(=O)[C@@H](NC(=O)c1ccccc1C(=O)O)C(C)(C)C)C(=O)C(=O)NCC(=O)N1CCN(C)CC1` [PVA-136], the concentration for half-maximal inhibition (IC50) was under 0.02 µM. The same measure, in the same setting: then `CC(C)[C@H](NC(=O)[C@H](C)NC(=O)[C@H](Cc1cccc2ccccc12)NC(=O)c1ccccc1)C(=O)C(=O)NCC(=O)N1CCN(C)CC1` [PVA-137], with under 0.02 µM; and `CC(C)[C@H](NC(=O)[C@H](C)NC(=O)[C@H](Cc1cccc2ccccc12)NC(=O)c1cccc2ccccc12)C(=O)C(=O)NCC(=O)N1CCN(C)CC1` [PVA-138], with under 0.2 µM. For the molecule `CC(C)[C@H](NC(=O)[C@H](C)NC(=O)C1CCCN1C(=O)c1ccccc1)C(=O)C(=O)NCC(=O)N1CCN(C)CC1` (stereo partly shown) [PVA-140], the IC50 was under 2 µM. On the same count and under the same terms, then `Cc1cc(C(=O)N[C@H](C(=O)N[C@@H](C)C(=O)N[C@H](C(=O)C(=O)NC2CC2)C(C)C)C(C)(C)C)[nH]n1` [PVA-141], with under 0.2 µM. On the same count and under the same terms, to `CC(C)[C@H](NC(=O)[C@H](C)NC(=O)[C@@H](NC(=O)c1ccccc1)C(C)(C)c1ccccc1)C(=O)C(=O)NC1CC1` [PVA-142] belongs under 0.2 µM; to `CC(C)[C@H](NC(=O)[C@H](C)NC(=O)[C@@H](NC(=O)c1ccccc1)C(C)(C)c1ccccc1)C(=O)C(N)=O` [PVA-143], under 0.02 µM; to `CC(C)[C@H](NC(=O)[C@H](C)NC(=O)[C@@H](NC(=O)c1ccnc2ccccc12)C(C)(C)C)C(=O)C(=O)NC1CC1` [PVA-144], under 0.02 µM. As to `CC(C)[C@H](NC(=O)[C@H](C)NC(=O)C1CCCN1C(=O)c1ccccc1)C(=O)C(=O)NCC(=O)N1CCN(C)CC1` (stereo partly shown) [PVA-145], the IC50 is under 0.2 µM. Turning to `CC(C)[C@H](NC(=O)[C@H](C)NC(=O)[C@@H](NC(=O)c1ccnc2ccccc12)C12CC3CC(CC(C3)C1)C2)C(=O)C(=O)NCC(=O)N1CCN(C)CC1` [PVA-147], the IC50 was under 0.02 µM.

In the case of `Cc1cc(C(=O)N[C@H](C(=O)N[C@@H](C)C(=O)N[C@H](C(=O)C(N)=O)C(C)C)C(C)(C)C)[nH]n1` [PVA-148], the IC50 was under 0.2 µM.

As for `CC(C)[C@H](NC(=O)[C@H](C)NC(=O)[C@@H](NC(=O)c1cccc2[nH]ncc12)C(C)(C)C)C(=O)C(=O)NCc1ccccc1` [PVA-149], the half-inhibitory concentration (IC50) was under 0.02 µM. On to `CC(C)[C@H](NC(=O)[C@H](C)NC(=O)[C@@H](NC(=O)c1cccc2ncccc12)C(C)(C)C)C(=O)C(=O)NCc1ccccc1` [PVA-150], for which the half-maximal inhibitory concentration (IC50) is under 0.02 µM.

(Values after patent US8541363B2, “Pyruvamide compounds as inhibitors of dust mite group 1 peptidase allergen and their use” (St George's Hosptial Medical School, priority 2010, dated 2013).)
